Source: patent US20240116946A1 (Gilead Sciences, Inc., priority 2022, published 2024)
Like-named read-outs stand apart in the source and are kept apart here.

Tests used:
[1] = target: recombinant SARS-CoV-2 Main protease (Mpro) (Severe acute respiratory syndrome coronavirus 2 (2019-nCoV) (SARS-CoV-2), UniProt P0DTD1); experiment: Cov Mpro Biochemical IC50 Assay; conditions: read-out: MPro IC50
SARS-CoV-2-NLuc = experiment: microbe, parasite or virus in culture; assay type: cell-based, SARS Coronavirus 2
[2] = recombinant SARS-CoV-2 Mpro 7.5 nM, fluorogenic peptide substrate 40 μM
[3] = Severe acute respiratory syndrome coronavirus, 48 h, read-out: MPro EC50
[4] = recombinant SARS-CoV-2 Mpro, fluorogenic peptide substrate
[5] = Severe acute respiratory syndrome coronavirus, 48 h; read-out: MPro EC50

| SMILES | IC50 [1, 2] [nM] | EC50 (SARS-CoV-2-NLuc; read-out: MPro EC50) [nM] | EC50 (SARS-CoV-2-NLuc; [3]) [nM] | IC50 [1, 4] [nM] | EC50 (SARS-CoV-2-NLuc; [5]) [nM] |
| --- | --- | --- | --- | --- | --- |
| Cn1ncc2cncc(-n3c(=O)c4sc(-c5cc(F)c(F)cc5Cl)cc4n(CCC#N)c3=O)c21 (single isomer, unassigned) [Example 1077, 3-[6-(2-chloro-4,5-difluoro-phenyl)-3-(1-methylpyrazolo[4,3-c]pyridin-7-yl)-2,4-dioxo-thieno[3,2-d]pyrimidin-1-yl]propanenitrile] | 485 | > 1000 | – | – | – |
| COc1cc(-c2cc3c(s2)c(=O)n(-c2cncc4ccc(F)cc24)c(=O)n3CCC#N)c(Cl)cc1F [Example 945] | 8 | – | 8.65 | – | – |
| Cn1ncc(-c2cccc(Cl)c2-c2ccc3c(=O)n(-c4cncc5ccccc45)c(=O)[nH]c3c2)c1C(F)(F)F [Example 272] | – | – | 39.6 | 212 | – |
| COc1ccc(Cl)c(-c2cc3[nH]c(=O)n(-c4cncc5cnn(CC(F)(F)F)c45)c(=O)c3s2)c1 [Example 500] | 9.12 | – | 42.6 | – | – |
| COc1ccc(Cl)c(-c2ccc3c(=O)n(-c4cncc5ccccc45)c(=O)[nH]c3c2)c1F [Example 322] | – | – | 1300 | 3530 | – |
| COC1CCN(c2ccc3cncc(-n4c(=O)[nH]c5cc(-c6ccccc6Cl)sc5c4=O)c3c2)CC1 [Example 401] | 3.84 | – | 10.6 | – | – |
| O=c1[nH]c2cc(-c3ccccc3C(F)(F)F)ccc2c(=O)n1-c1cncc2ccccc12 [Example 24, 3-(isoquinolin-4-yl)-7-(2-(trifluoromethyl)phenyl)quinazoline-2,4(1H,3H)-dione] | – | – | – | 2730 | 2500 |
| COc1ccc2cncc(-n3c(=O)[nH]c4cc(-c5ccccc5Cl)ccc4c3=O)c2c1 [Example 237] | – | – | 143 | 87 | – |
| COc1cc(-c2cc3c(s2)c(=O)n(-c2cncc4cnccc24)c(=O)n3CCC#N)c(Cl)cc1F [Example 917] | 7.5 | – | 6.09 | – | – |
| COc1cc(-c2cc3c(s2)c(=O)n(-c2cncc(C4CC4)c2)c(=O)n3CCC#N)c(Cl)cc1F [Example 924] | 2.52 | – | 5.31 | – | – |
| Cc1cccc(-c2cc3[nH]c(=O)n(-c4cncc5ccccc45)c(=O)c3s2)c1Cl [Example 11] | – | – | 638 | 4820 | – |
| COc1c(C)cncc1-n1c(=O)[nH]c2cc(-c3ccccc3Cl)sc2c1=O [Example 213] | – | – | – | 16.4 | 31.1 |
| O=c1[nH]c2cc(-c3c(Cl)cccc3-c3ccncc3)ccc2c(=O)n1-c1cncc2ccccc12 [Example 329] | – | – | 22.3 | 9.77 | – |
| COc1cc(-c2cc3[nH]c(=O)n(-c4cncc5sc(C(F)F)c(C)c45)c(=O)c3s2)c(Cl)cc1F [Example 1060, 6-(2-chloro-4-fluoro-5-methoxyphenyl)-3-(2-(difluoromethyl)-3-methylthieno[2,3-c]pyridin-4-yl)thieno[3,2-d]pyrimidine-2,4(1H,3H)-dione] | 20 | – | 28.9 | – | – |
| COc1cnc(Cl)c(-c2cc3c(s2)c(=O)n(-c2cncc4ccccc24)c(=O)n3CCC#N)c1 [Example 942] | 12 | – | 13.2 | – | – |
| COc1cc(-c2cc3c(s2)c(=O)n(-c2cncc(C)c2Cl)c(=O)n3CCC#N)c(Cl)cc1F [Example 944] | 6.67 | – | 8.22 | – | – |
| COc1cc(-c2cc3c(s2)c(=O)n(-c2cncc4c2c(C)nn4C)c(=O)n3CCC#N)c(Cl)cc1F (single isomer, unassigned) [Example 1043, 3-(6-(2-chloro-4-fluoro-5-methoxyphenyl)-3-(1,3-dimethyl-1H-pyrazolo[3,4-c]pyridin-4-yl)-2,4-dioxo-3,4-dihydrothieno[3,2-d]pyrimidin-1(2H)-yl)propanenitrile] | > 1000 | > 1000 | – | – | – |
| COc1ccc(F)c(-c2ccc3c(=O)n(-c4cncc5ccccc45)c(=O)[nH]c3c2)c1 [Example 254] | – | – | 277 | 107 | – |
| COc1ccc(Cl)c(-c2cc3[nH]c(=O)n(-c4cncc5cc(OC)ccc45)c(=O)c3s2)c1 [Example 624, 6-(2-chloro-5-methoxyphenyl)-3-(7-methoxyisoquinolin-4-yl)thieno[3,2-d]pyrimidine-2,4(1H,3H)-dione] | 88.7 | – | – | – | 386 |
| COc1ccc(Cl)c(-c2cc3[nH]c(=O)n(-c4cncc5ccc(F)cc45)c(=O)c3s2)c1 [Example 623, 6-(2-chloro-5-methoxy-phenyl)-3-(6-fluoro-4-isoquinolyl)-1H-thieno[3,2-d]pyrimidine-2,4-dione] | 11.5 | – | – | – | 30 |

| SMILES | IC50 [1, 2] [nM] | EC50 (SARS-CoV-2-NLuc; read-out: MPro EC50) [nM] | EC50 (SARS-CoV-2-NLuc; [3]) [nM] | IC50 [1, 4] [nM] | EC50 (SARS-CoV-2-NLuc; [5]) [nM] |
| --- | --- | --- | --- | --- | --- |
| COc1cc(-c2cc3c(s2)c(=O)n(-c2cnc(F)c(C)c2)c(=O)n3CCC#N)c(C#N)cc1F [Example 780] | 17.4 | – | 53.3 | – | – |
| COc1cc(-c2cc3c(s2)c(=O)n(-c2cncc4cnn(C)c24)c(=O)n3CC2CCCN2C)c(Cl)cc1F (stereo not drawn) [Example 1071] | 102 | – | 306 | – | – |
| CC(C)Oc1cc(F)ccc1-c1cc2[nH]c(=O)n(-c3cncc4ccccc34)c(=O)c2s1 [Example 14] | – | – | 79.9 | 132 | – |
| COc1cc(-c2cc3c(s2)c(=O)n(-c2cncc4ncccc24)c(=O)n3CCC#N)c(Cl)cc1F [Example 915] | 8.9 | – | 19.4 | – | – |
| COc1cc(-c2cc3c(s2)c(=O)n(-c2cncc4cnn(C)c24)c(=O)n3CCS(C)(=O)=O)c(Cl)cc1F [Example 1067, 6-(2-chloro-4-fluoro-5-methoxy-phenyl)-3-(1-methylpyrazolo[4,3-c]pyridin-7-yl)-1-(2-methylsulfonylethyl)thieno[3,2-d]pyrimidine-2,4-dione] | 27.2 | – | – | – | 57.8 |
| COc1ccc(Cl)c(-c2ccc3c(=O)n(-c4cncc5ccc(F)cc45)c(=O)[nH]c3c2)c1 [Example 371] | – | – | – | 55.9 | 108 |
| O=c1[nH]c2cc(-c3ccccc3Cl)sc2c(=O)n1-c1cncc2ccccc12 (single isomer, unassigned) [Example 151, 6-(2-chlorophenyl)-3-(isoquinolin-4-yl)thieno[3,2-d]pyrimidine-2,4(1H,3H)-dione] | – | 1.73 | – | < 2.54 | – |
| O=c1[nH]c2c(Cl)c(-c3ccccc3Cl)ccc2c(=O)n1-c1cncc2ccccc12 [Example 79] | – | – | 12100 | 14000 | – |
| COc1cnc(Cl)c(-c2cc3[nH]c(=O)n(-c4cncc5ccccc45)c(=O)c3s2)c1 (single isomer, unassigned) [Example 629, 6-(2-chloro-5-methoxypyridin-3-yl)-3-(isoquinolin-4-yl)thieno[3,2-d]pyrimidine-2,4(1H,3H)-dione] | 42.4 | 290 | – | – | – |
| COc1cc(-c2cc3c(s2)c(=O)n(-c2cncc4ccc(C#CC(C)(C)O)cc24)c(=O)n3CCC#N)c(Cl)cc1F [Example 947] | 7.28 | – | 14.2 | – | – |
| COc1cnc(C#N)c(-c2cc3[nH]c(=O)n(-c4cncc5ccccc45)c(=O)c3s2)c1 [Example 541] | 17.6 | – | 237 | – | – |
| Cc1nc2cncc(-n3c(=O)c4sc(-c5ccccc5C#N)cc4n(CCC#N)c3=O)c2n1C [Example 854] | 93.3 | – | > 1000 | – | – |
| Cc1ccncc1-n1c(=O)[nH]c2cc(-c3ccccc3Cl)sc2c1=O [Example 216] | – | – | 112 | 62.3 | – |
| CS(=O)(=O)c1cncc(-c2cccc(Cl)c2-c2ccc3c(=O)n(-c4cncc5ccccc45)c(=O)[nH]c3c2)c1 [Example 203] | – | – | 26.9 | 11.1 | – |
| COc1cc(-c2cc3c(s2)c(=O)n(-c2cncc4nnn(C)c24)c(=O)n3CCC#N)c(Cl)cc1F (single isomer, unassigned) [Example 1058, 3-(6-(2-chloro-4-fluoro-5-methoxyphenyl)-3-(1-methyl-1H-[1,2,3]triazolo[4,5-c]pyridin-7-yl)-2,4-dioxo-3,4-dihydrothieno[3,2-d]pyrimidin-1(2H)-yl)propanenitrile] | 2.86 | 5.15 | – | – | – |
| Cc1c2c(-n3c(=O)c4sc(-c5ccccc5C#N)cc4n(CCC#N)c3=O)cncc2nn1C [Example 896] | 59.2 | – | – | – | 479 |
| COc1cnc(Cl)c(-c2cc3[nH]c(=O)n(-c4cncc5ccccc45)c(=O)c3s2)c1 [Example 364, 6-(2-chloro-5-methoxypyridin-3-yl)-3-(isoquinolin-4-yl)thieno[3,2-d]pyrimidine-2,4(1H,3H)-dione] | – | – | 18.2 | 5.31 | – |
| Cn1ncc2c(-c3cc4[nH]c(=O)n(-c5cncc6cnn(C)c56)c(=O)c4s3)c(Cl)ccc21 [Example 670] | 146 | – | 585 | – | – |
| COc1cc(-c2cc3c(s2)c(=O)n(-c2cncc4cccnc24)c(=O)n3CCC#N)c(Cl)cc1F [Example 904, 3-(6-(2-chloro-4-fluoro-5-methoxyphenyl)-3-(1,6-naphthyridin-8-yl)-2,4-dioxo-3,4-dihydrothieno[3,2-d]pyrimidin-1(2H)-yl)propanenitrile] | 4.29 | – | 1.34 | – | – |
